Experimental data from the supplement of paper PMC10307832.

Legend:
Test in all cases: relative viability (nuclei count vs DMSO), 5 days (fraction); higher = more cells survive
[1] = compound: C1=CC=C(C(=C1)C2=CC=C(C=C2)C3=CSC4=C3C(=C(C(=O)N4)C#N)O)O + O=C(c1cc(Cc2n[nH]c(=O)c3ccccc23)ccc1F)N1CCN(C(=O)C2CC2)CC1 [Olaparib] (partner 8 µM)
In short: (§1)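 Cells from lung cancer lines were seeded into 1536-well plates and, one day later, dosed by pin tool. Treatments were either a single drug or a fixed dose of an anchor drug with five library-drug doses (not always all listed) in √10 steps. After 5 days, nuclei were stained in a one-step fixation (final 0.05% Triton X-100, 1% formaldehyde, 1 ug/ml Hoechst) and counted on 4× images, and relative viability is the treated-to-vehicle nuclei ratio, as the median of duplicate plates.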

[2] = compound: C1=CC=C(C(=C1)C2=CC=C(C=C2)C3=CSC4=C3C(=C(C(=O)N4)C#N)O)O + O=C(CCCCCCC(=O)Nc1ccccc1)NO [Vorinostat] (partner 1 µM)
In short: as §1

[3] = compound: C1=CC=C(C(=C1)C2=CC=C(C=C2)C3=CSC4=C3C(=C(C(=O)N4)C#N)O)O + NC(=O)Nc1cc(-c2cccc(F)c2)sc1C(=O)N[C@H]1CCCNC1 [AZD7762] (partner 0.2 µM)
In short: as §1

TGX 221 + Vorinostat = compound: CC1=CN2C(=O)C=C(N=C2C(=C1)C(C)NC3=CC=CC=C3)N4CCOCC4 [TGX 221] + O=C(CCCCCCC(=O)Nc1ccccc1)NO [Vorinostat] (partner 1 µM)
In short: as §1

Cell Line: NCI-H1651
- relative viability ([1]; first compound 0.08 µM): 0.185
- relative viability ([1]; first compound 0.253 µM): 0.182
- relative viability ([1]; first compound 0.8 µM): 0.197
- relative viability ([1]; first compound 2.53 µM): 0.186
- relative viability ([1]; first compound 8 µM): 0.16
- relative viability ([2]; first compound 0.08 µM): 0.509
- relative viability ([2]; first compound 0.253 µM): 0.523
- relative viability ([2]; first compound 0.8 µM): 0.583
- relative viability ([2]; first compound 2.53 µM): 0.535
- relative viability ([2]; first compound 8 µM): 0.51
- relative viability ([3]; first compound 0.08 µM): 0.496
- relative viability ([3]; first compound 0.253 µM): 0.454
- relative viability ([3]; first compound 0.8 µM): 0.428
- relative viability ([3]; first compound 2.53 µM): 0.479
- relative viability ([3]; first compound 8 µM): 0.334
- relative viability (TGX 221 + Vorinostat; first compound 0.08 µM): 0.525
- relative viability (TGX 221 + Vorinostat; first compound 0.253 µM): 0.646
- relative viability (TGX 221 + Vorinostat; first compound 0.8 µM): 0.527
- relative viability (TGX 221 + Vorinostat; first compound 2.53 µM): 0.517
- relative viability (TGX 221 + Vorinostat; first compound 8 µM): 0.581

Cell Line: NCI-H1666
- relative viability ([1]; first compound 0.08 µM): 0.731
- relative viability ([1]; first compound 0.253 µM): 0.715
- relative viability ([1]; first compound 0.8 µM): 0.767
- relative viability ([1]; first compound 2.53 µM): 0.737
- relative viability ([1]; first compound 8 µM): 0.747
- relative viability ([2]; first compound 0.08 µM): 0.905
- relative viability ([2]; first compound 0.253 µM): 1.04
- relative viability ([2]; first compound 0.8 µM): 0.993
- relative viability ([2]; first compound 2.53 µM): 1.03
- relative viability ([2]; first compound 8 µM): 0.984
- relative viability ([3]; first compound 0.08 µM): 0.807
- relative viability ([3]; first compound 0.253 µM): 0.894
- relative viability ([3]; first compound 0.8 µM): 0.8
- relative viability ([3]; first compound 2.53 µM): 0.796
- relative viability ([3]; first compound 8 µM): 0.706
- relative viability (TGX 221 + Vorinostat; first compound 0.08 µM): 0.958
- relative viability (TGX 221 + Vorinostat; first compound 0.253 µM): 0.963
- relative viability (TGX 221 + Vorinostat; first compound 0.8 µM): 1.06
- relative viability (TGX 221 + Vorinostat; first compound 2.53 µM): 1.06
- relative viability (TGX 221 + Vorinostat; first compound 8 µM): 1.1

Cell Line: NCI-H1734
- relative viability ([1]; first compound 0.08 µM): 0.601
- relative viability ([1]; first compound 0.253 µM): 0.687
- relative viability ([1]; first compound 0.8 µM): 0.678
- relative viability ([1]; first compound 2.53 µM): 0.601
- relative viability ([1]; first compound 8 µM): 0.529
- relative viability ([2]; first compound 0.08 µM): 0.747
- relative viability ([2]; first compound 0.253 µM): 0.767
- relative viability ([2]; first compound 0.8 µM): 0.751
- relative viability ([2]; first compound 2.53 µM): 0.803
- relative viability ([2]; first compound 8 µM): 0.765
- relative viability ([3]; first compound 0.08 µM): 0.573
- relative viability ([3]; first compound 0.253 µM): 0.511
- relative viability ([3]; first compound 0.8 µM): 0.559
- relative viability ([3]; first compound 2.53 µM): 0.594
- relative viability ([3]; first compound 8 µM): 0.459
- relative viability (TGX 221 + Vorinostat; first compound 0.08 µM): 0.675
- relative viability (TGX 221 + Vorinostat; first compound 0.253 µM): 0.67
- relative viability (TGX 221 + Vorinostat; first compound 0.8 µM): 0.787
- relative viability (TGX 221 + Vorinostat; first compound 2.53 µM): 0.702
- relative viability (TGX 221 + Vorinostat; first compound 8 µM): 0.764

Cell Line: NCI-H1755
- relative viability ([1]; first compound 0.08 µM): 0.989
- relative viability ([1]; first compound 0.253 µM): 0.901
- relative viability ([1]; first compound 0.8 µM): 0.875
- relative viability ([1]; first compound 2.53 µM): 0.841
- relative viability ([1]; first compound 8 µM): 0.916
- relative viability ([2]; first compound 0.08 µM): 0.822
- relative viability ([2]; first compound 0.253 µM): 0.913
- relative viability ([2]; first compound 0.8 µM): 0.735
- relative viability ([2]; first compound 2.53 µM): 0.761
- relative viability ([2]; first compound 8 µM): 0.687
- relative viability ([3]; first compound 0.08 µM): 0.44
- relative viability ([3]; first compound 0.253 µM): 0.466
- relative viability ([3]; first compound 0.8 µM): 0.572
- relative viability ([3]; first compound 2.53 µM): 0.435
- relative viability ([3]; first compound 8 µM): 0.377
- relative viability (TGX 221 + Vorinostat; first compound 0.08 µM): 0.677
- relative viability (TGX 221 + Vorinostat; first compound 0.253 µM): 0.681
- relative viability (TGX 221 + Vorinostat; first compound 0.8 µM): 0.775
- relative viability (TGX 221 + Vorinostat; first compound 2.53 µM): 0.718
- relative viability (TGX 221 + Vorinostat; first compound 8 µM): 0.667

Cell Line: NCI-H1793
- relative viability ([1]; first compound 0.08 µM): 0.929
- relative viability ([1]; first compound 0.253 µM): 0.937
- relative viability ([1]; first compound 0.8 µM): 0.867
- relative viability ([1]; first compound 2.53 µM): 0.882
- relative viability ([1]; first compound 8 µM): 0.78
- relative viability ([2]; first compound 0.08 µM): 0.58
- relative viability ([2]; first compound 0.253 µM): 1.05
- relative viability ([2]; first compound 0.8 µM): 0.497
- relative viability ([2]; first compound 2.53 µM): 0.634
- relative viability ([2]; first compound 8 µM): 0.681
- relative viability ([3]; first compound 0.08 µM): 0.401
- relative viability ([3]; first compound 0.253 µM): 0.411
- relative viability ([3]; first compound 0.8 µM): 0.473
- relative viability ([3]; first compound 2.53 µM): 0.53
- relative viability ([3]; first compound 8 µM): 0.432
- relative viability (TGX 221 + Vorinostat; first compound 0.08 µM): 0.612
- relative viability (TGX 221 + Vorinostat; first compound 0.253 µM): 0.521
- relative viability (TGX 221 + Vorinostat; first compound 0.8 µM): 0.589
- relative viability (TGX 221 + Vorinostat; first compound 2.53 µM): 0.592
- relative viability (TGX 221 + Vorinostat; first compound 8 µM): 0.588

Cell Line: NCI-H1915
- relative viability ([1]; first compound 0.08 µM): 0.298
- relative viability ([1]; first compound 0.253 µM): 0.265
- relative viability ([1]; first compound 0.8 µM): 0.262
- relative viability ([1]; first compound 2.53 µM): 0.273
- relative viability ([1]; first compound 8 µM): 0.246
- relative viability ([2]; first compound 0.08 µM): 0.455
- relative viability ([2]; first compound 0.253 µM): 0.468
- relative viability ([2]; first compound 0.8 µM): 0.449
- relative viability ([2]; first compound 2.53 µM): 0.552
- relative viability ([2]; first compound 8 µM): 0.46
- relative viability ([3]; first compound 0.08 µM): 0.657
- relative viability ([3]; first compound 0.253 µM): 0.754
- relative viability ([3]; first compound 0.8 µM): 0.696
- relative viability ([3]; first compound 2.53 µM): 0.697
- relative viability ([3]; first compound 8 µM): 0.649
- relative viability (TGX 221 + Vorinostat; first compound 0.08 µM): 0.436
- relative viability (TGX 221 + Vorinostat; first compound 0.253 µM): 0.486
- relative viability (TGX 221 + Vorinostat; first compound 0.8 µM): 0.489
- relative viability (TGX 221 + Vorinostat; first compound 2.53 µM): 0.437
- relative viability (TGX 221 + Vorinostat; first compound 8 µM): 0.554

Cell Line: NCI-H1944
- relative viability ([1]; first compound 0.08 µM): 0.465
- relative viability ([1]; first compound 0.253 µM): 0.433
- relative viability ([1]; first compound 0.8 µM): 0.386
- relative viability ([1]; first compound 2.53 µM): 0.464
- relative viability ([1]; first compound 8 µM): 0.373
- relative viability ([2]; first compound 0.08 µM): 0.682
- relative viability ([2]; first compound 0.253 µM): 0.637
- relative viability ([2]; first compound 0.8 µM): 0.571
- relative viability ([2]; first compound 2.53 µM): 0.479
- relative viability ([2]; first compound 8 µM): 0.478
- relative viability ([3]; first compound 0.08 µM): 0.67
- relative viability ([3]; first compound 0.253 µM): 0.537
- relative viability ([3]; first compound 0.8 µM): 0.696
- relative viability ([3]; first compound 2.53 µM): 0.469
- relative viability ([3]; first compound 8 µM): 0.603
- relative viability (TGX 221 + Vorinostat; first compound 0.253 µM): 0.547
- relative viability (TGX 221 + Vorinostat; first compound 0.8 µM): 0.488
- relative viability (TGX 221 + Vorinostat; first compound 2.53 µM): 0.476
- relative viability (TGX 221 + Vorinostat; first compound 8 µM): 0.488

Cell Line: NCI-H1975
- relative viability ([1]; first compound 0.08 µM): 0.692
- relative viability ([1]; first compound 0.253 µM): 0.901
- relative viability ([1]; first compound 0.8 µM): 0.796
- relative viability ([1]; first compound 2.53 µM): 0.893
- relative viability ([1]; first compound 8 µM): 0.535
- relative viability ([2]; first compound 0.08 µM): 0.665
- relative viability ([2]; first compound 0.253 µM): 0.78
- relative viability ([2]; first compound 0.8 µM): 0.736
- relative viability ([2]; first compound 2.53 µM): 0.81
- relative viability ([2]; first compound 8 µM): 0.677
- relative viability ([3]; first compound 0.08 µM): 0.665
- relative viability ([3]; first compound 0.253 µM): 0.746
- relative viability ([3]; first compound 0.8 µM): 0.606
- relative viability ([3]; first compound 2.53 µM): 0.736
- relative viability ([3]; first compound 8 µM): 0.633
- relative viability (TGX 221 + Vorinostat; first compound 0.08 µM): 0.749
- relative viability (TGX 221 + Vorinostat; first compound 0.253 µM): 0.656
- relative viability (TGX 221 + Vorinostat; first compound 0.8 µM): 0.689
- relative viability (TGX 221 + Vorinostat; first compound 2.53 µM): 0.718
- relative viability (TGX 221 + Vorinostat; first compound 8 µM): 0.607
